Assay results published in ChEMBL document CHEMBL5465560, “Selectivity Literature for EUbOPEN Chemogenomic Library” (2024).

Columns and labels:
[1] = biological target: Tyrosine-protein kinase Yes (Homo sapiens) (UniProt P07947); test: Selectivity interaction (Kinase screening (Nanosyn)) EUB0000604a YES1
[2] = biological target: STE20-like serine/threonine-protein kinase (Homo sapiens, UniProt Q9H2G2); test: Selectivity interaction (ActivX KiNativ screen (kinase selectivity in THP-1 cell lysates)) EUB0000639a SLK; type: subcellular; settings: lysate, at 0.04 µM
Chain of STE20-like serine/threonine-protein kinase (Q9H2G2 whole entry, looked up): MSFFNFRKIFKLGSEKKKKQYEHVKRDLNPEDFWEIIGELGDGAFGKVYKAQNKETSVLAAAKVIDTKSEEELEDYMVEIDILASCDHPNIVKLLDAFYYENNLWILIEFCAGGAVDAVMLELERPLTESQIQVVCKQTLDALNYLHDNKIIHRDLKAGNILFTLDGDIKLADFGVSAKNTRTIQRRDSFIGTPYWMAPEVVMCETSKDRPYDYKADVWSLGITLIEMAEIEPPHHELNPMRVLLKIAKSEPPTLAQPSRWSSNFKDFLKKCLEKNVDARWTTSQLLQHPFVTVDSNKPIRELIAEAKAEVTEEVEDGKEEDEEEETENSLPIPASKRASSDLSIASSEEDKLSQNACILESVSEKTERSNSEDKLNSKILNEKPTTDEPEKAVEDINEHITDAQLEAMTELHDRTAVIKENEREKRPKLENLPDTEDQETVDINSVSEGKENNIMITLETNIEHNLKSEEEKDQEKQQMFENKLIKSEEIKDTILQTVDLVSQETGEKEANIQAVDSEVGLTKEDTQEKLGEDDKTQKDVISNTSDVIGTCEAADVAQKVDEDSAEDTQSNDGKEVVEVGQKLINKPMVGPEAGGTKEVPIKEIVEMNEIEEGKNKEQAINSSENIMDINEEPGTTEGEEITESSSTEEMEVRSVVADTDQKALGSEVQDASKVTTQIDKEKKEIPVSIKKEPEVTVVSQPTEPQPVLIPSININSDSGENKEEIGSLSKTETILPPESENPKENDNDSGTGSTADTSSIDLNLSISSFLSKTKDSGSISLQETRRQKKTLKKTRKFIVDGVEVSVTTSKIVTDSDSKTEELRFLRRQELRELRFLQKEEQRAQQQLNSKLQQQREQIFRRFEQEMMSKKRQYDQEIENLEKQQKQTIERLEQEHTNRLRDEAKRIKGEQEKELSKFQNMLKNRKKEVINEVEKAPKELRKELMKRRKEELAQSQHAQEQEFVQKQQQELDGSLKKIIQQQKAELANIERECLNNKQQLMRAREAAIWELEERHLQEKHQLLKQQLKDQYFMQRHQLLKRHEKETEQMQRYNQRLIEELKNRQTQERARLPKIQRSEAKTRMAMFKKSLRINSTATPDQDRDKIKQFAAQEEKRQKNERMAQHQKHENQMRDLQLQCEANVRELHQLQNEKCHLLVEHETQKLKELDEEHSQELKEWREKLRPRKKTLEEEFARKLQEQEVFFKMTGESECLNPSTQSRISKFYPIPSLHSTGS

[3] = biological target: T1, Serine/threonine-protein kinase ULK1 (Homo sapiens) (UniProt O75385); test: Selectivity interaction (ActivX KiNativ screen (kinase selectivity in THP-1 cell lysates)) EUB0000639a ULK1; type: subcellular; settings: lysate, at 0.04 µM
T1 sequence (whole entry): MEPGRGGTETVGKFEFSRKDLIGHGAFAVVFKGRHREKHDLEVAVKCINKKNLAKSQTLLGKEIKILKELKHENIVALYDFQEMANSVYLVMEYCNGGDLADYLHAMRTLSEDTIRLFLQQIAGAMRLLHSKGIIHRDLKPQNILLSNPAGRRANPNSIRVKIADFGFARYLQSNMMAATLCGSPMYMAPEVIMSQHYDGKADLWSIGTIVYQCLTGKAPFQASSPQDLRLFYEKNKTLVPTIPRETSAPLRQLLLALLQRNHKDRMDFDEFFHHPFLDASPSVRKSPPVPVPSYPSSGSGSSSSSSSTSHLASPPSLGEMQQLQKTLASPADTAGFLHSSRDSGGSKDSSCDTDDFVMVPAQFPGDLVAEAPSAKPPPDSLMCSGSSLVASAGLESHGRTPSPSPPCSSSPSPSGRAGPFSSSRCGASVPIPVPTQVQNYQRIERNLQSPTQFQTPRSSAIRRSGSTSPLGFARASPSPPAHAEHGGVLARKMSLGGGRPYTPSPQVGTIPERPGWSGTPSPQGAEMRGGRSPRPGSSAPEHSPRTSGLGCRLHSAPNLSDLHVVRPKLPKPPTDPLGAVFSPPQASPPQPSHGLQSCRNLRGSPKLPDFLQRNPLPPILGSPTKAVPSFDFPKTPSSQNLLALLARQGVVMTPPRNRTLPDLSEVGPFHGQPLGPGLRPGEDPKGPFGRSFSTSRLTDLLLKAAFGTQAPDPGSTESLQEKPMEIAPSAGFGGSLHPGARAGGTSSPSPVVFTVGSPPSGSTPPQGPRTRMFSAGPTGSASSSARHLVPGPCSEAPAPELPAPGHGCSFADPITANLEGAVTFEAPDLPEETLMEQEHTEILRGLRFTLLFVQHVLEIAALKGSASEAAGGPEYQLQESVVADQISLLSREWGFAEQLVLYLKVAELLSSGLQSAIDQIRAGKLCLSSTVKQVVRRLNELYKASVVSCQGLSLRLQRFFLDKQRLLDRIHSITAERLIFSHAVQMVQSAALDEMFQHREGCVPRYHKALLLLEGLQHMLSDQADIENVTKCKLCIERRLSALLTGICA

[4] = biological target: Serine/threonine-protein kinase tousled-like 2 (Homo sapiens) (UniProt Q86UE8); test: Selectivity interaction (LanthaScreen Eu Kinase Binding Assay) EUB0001632a TLK2; settings: at 10 µM
Chain of Serine/threonine-protein kinase tousled-like 2 (Homo sapiens) (Q86UE8 whole entry, looked up): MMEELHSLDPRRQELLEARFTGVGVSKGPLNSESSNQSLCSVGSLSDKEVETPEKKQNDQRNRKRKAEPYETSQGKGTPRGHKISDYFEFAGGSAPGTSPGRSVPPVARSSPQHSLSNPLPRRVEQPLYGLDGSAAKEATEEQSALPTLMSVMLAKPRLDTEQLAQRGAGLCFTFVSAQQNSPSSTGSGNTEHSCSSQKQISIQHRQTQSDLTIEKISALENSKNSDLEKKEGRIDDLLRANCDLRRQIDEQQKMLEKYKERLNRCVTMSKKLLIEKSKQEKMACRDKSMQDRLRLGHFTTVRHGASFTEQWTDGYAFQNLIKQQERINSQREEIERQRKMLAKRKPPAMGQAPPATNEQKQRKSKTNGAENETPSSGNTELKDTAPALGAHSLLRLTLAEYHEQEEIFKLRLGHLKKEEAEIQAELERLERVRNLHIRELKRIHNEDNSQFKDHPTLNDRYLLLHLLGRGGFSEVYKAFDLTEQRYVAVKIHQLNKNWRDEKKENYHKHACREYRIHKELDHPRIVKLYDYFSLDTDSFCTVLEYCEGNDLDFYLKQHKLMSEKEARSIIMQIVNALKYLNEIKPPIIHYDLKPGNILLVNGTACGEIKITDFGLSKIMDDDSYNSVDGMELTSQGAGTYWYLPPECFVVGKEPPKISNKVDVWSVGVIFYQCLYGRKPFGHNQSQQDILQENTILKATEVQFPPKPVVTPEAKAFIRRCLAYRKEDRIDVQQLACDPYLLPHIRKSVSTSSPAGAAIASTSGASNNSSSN

[5] = biological target: T2, Mitogen-activated protein kinase 13 (Homo sapiens) (UniProt O15264); test: Selectivity interaction (KinomeScan (DiscoverX)) EUB0000695a MAPK13; settings: at 100 nM
T2 sequence (whole entry): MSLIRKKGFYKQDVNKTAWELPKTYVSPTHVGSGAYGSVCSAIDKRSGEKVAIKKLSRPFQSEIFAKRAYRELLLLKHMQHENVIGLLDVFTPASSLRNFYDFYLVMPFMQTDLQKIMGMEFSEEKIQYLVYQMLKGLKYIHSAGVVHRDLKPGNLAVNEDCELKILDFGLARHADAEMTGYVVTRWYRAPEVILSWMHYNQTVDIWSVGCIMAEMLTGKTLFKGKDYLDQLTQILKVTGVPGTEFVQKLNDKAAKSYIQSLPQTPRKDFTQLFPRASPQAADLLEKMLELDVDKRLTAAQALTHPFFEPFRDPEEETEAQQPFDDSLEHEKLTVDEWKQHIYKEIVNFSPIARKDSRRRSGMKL

[6] = biological target: Tyrosine-protein kinase HCK (Homo sapiens) (UniProt P08631); settings: at 10 µM
Chain of Tyrosine-protein kinase HCK (Homo sapiens) (P08631 2-526 limits assumed): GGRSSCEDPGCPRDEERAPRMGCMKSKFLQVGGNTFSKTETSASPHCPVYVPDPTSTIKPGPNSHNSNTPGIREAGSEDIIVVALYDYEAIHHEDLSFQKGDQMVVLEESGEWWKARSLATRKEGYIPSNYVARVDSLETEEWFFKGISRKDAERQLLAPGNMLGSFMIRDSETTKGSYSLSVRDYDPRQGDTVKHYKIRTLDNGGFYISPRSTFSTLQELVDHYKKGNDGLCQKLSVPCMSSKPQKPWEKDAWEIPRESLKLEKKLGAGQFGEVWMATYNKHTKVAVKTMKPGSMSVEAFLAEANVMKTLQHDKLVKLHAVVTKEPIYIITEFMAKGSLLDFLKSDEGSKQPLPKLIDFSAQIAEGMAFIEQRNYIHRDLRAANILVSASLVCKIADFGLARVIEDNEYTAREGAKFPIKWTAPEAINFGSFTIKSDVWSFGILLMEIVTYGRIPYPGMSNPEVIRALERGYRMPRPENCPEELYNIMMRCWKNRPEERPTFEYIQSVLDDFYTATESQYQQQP

[7] = biological target: Serine/threonine-protein kinase 32C (Homo sapiens) (UniProt Q86UX6); settings: at 10 µM
Chain of Serine/threonine-protein kinase 32C (Homo sapiens) (Q86UX6 whole entry): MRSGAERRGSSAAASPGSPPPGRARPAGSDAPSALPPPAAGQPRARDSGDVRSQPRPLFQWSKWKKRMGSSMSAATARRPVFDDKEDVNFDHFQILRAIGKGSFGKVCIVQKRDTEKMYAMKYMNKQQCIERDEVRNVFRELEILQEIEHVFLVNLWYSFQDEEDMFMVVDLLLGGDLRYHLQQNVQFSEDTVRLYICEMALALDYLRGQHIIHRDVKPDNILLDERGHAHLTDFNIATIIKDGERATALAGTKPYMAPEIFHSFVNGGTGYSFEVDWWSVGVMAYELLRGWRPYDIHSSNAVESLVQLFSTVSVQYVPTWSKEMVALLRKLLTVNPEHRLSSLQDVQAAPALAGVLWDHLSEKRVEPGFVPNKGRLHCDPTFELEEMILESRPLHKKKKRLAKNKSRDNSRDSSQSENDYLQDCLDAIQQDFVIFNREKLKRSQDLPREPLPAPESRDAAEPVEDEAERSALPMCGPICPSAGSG

[8] = biological target: T3, Mitogen-activated protein kinase kinase kinase 7 (Homo sapiens) (UniProt O43318); test: Selectivity interaction (KinomeScan (DiscoverX)) EUB0000229b MAP3K7; settings: at 10 µM
T3 sequence (whole entry): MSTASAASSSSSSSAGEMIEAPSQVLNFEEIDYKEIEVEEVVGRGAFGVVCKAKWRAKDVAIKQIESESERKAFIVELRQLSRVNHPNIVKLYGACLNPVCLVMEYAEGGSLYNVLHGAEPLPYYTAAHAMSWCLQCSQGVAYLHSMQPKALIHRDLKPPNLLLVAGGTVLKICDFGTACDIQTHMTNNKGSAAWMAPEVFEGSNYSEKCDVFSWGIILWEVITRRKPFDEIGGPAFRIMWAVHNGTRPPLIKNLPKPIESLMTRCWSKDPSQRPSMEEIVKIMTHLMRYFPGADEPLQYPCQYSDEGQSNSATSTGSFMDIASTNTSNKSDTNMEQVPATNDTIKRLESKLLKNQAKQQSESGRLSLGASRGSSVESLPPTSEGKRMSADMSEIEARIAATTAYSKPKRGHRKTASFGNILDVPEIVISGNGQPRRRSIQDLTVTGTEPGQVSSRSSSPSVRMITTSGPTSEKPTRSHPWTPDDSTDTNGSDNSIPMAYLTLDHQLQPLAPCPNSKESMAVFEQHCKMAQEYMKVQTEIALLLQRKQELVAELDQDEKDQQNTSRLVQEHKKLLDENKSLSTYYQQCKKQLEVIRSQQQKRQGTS

[9] = biological target: T2, Mitogen-activated protein kinase 13 (Homo sapiens); test: Selectivity interaction (KinomeScan (DiscoverX)) EUB0001619a MAPK13; settings: at 1 µM
[10] = biological target: T4, Phosphorylase b kinase gamma catalytic chain, liver/testis isoform (Homo sapiens) (UniProt P15735); test: Selectivity interaction (KinomeScan (DiscoverX)) EUB0000666a PHKG2; settings: at 10 µM
T4 sequence (whole entry): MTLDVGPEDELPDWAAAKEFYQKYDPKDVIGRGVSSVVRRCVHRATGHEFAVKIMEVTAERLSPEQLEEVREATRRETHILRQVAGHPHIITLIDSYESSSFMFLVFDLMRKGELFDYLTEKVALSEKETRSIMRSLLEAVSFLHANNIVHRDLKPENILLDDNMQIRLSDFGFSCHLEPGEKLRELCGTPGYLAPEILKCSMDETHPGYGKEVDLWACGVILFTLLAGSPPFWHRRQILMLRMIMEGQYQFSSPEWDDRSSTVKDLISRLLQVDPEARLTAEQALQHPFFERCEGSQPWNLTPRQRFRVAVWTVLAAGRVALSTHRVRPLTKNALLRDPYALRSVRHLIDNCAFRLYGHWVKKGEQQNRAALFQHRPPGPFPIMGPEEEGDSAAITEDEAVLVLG

Chain of Tyrosine-protein kinase Yes (Homo sapiens) (P07947 2-543 limits assumed): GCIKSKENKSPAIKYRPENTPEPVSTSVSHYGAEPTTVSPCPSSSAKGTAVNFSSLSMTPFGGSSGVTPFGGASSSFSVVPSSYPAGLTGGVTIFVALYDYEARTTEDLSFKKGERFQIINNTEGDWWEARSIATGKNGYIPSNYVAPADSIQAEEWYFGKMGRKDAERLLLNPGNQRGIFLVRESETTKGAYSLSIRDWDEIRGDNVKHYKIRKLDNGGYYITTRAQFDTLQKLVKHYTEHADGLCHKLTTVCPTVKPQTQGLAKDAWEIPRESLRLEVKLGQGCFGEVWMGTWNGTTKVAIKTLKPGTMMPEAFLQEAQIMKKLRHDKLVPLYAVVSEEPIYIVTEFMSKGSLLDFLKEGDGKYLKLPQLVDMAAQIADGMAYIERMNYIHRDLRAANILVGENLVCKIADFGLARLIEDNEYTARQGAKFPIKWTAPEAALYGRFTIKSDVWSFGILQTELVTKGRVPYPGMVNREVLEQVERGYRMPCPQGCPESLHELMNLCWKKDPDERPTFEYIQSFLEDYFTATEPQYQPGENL

`Cc1cnc(Nc2ccc(F)cc2Cl)nc1-c1c[nH]c(C(=O)N[C@H](CO)c2cccc(Cl)c2)c1` was tested, and the % of inhibition [1] was 5%.
Work on `CC[C@@H]1[C@H](F)C(=O)N[C@@H]1COc1nccc2cc(C(N)=O)c(OC)cc12` [ZIMLOVISERTIB] yielded a % of inhibition [2] of -0.4% and a % of inhibition [3] of -12.7%.
With `Cn1cc(-n2cnc3c(NCc4nc5cc(Cl)c(Cl)cc5[nH]4)nc(N4CCOCC4)nc32)cn1` the % of inhibition [4] was -11.9%.
For `Cc1cc(F)c(C(=O)Nc2cccc(-c3nncn3C(C)C)n2)cc1-n1cnc(C2CC2)c1`, the % of control [5] was 100%.
With `CCN(CC)CCCCNc1ncc2cc(-c3cc(OC)cc(OC)c3)c(NC(=O)NC(C)(C)C)nc2n1` the % of control [6] was 100% and the % of control [7] was 100%.
`COc1cc(N(C)c2ccnc3ccc(C(F)(F)F)cc23)cc(OC)c1OC` was tested, and the % binding [8] was 80%.
Compound `N#Cc1cccc(-c2c[nH]c3ncnc(N4CCOCC4)c23)c1` has a % of control [9] of 70%.
Work on `O=C(NOC[C@H](O)CO)c1ccc(F)c(F)c1Nc1ccc(I)cc1F` yielded a % of control [10] of 93%.
